Results published in patent US8710043B2, “TRPM8 antagonists and their use in treatments” (Amgen Inc., priority 2011, dated 2014).

Molecular target: T1, human TRPM8 (Homo sapiens, UniProt Q7Z2W7)
T1 construct: expressed in transfected cells; host or cells: Chinese hamster ovary (CHO) cells, T-REx tetracycline-inducible system, co-transfected with aequorin
Experiment: Luminescence readout assay for measuring intracellular calcium, icilin activation
Format: cell-based
Settings: CHO cells expressing human TRPM8, aequorin luminescence, 1 μM icilin activation; read-out: hTRPM8 IC50
Outline: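 The read-out was luminescence reporting intracellular calcium, recorded by a CCD-based luminometer. Compounds were preincubated for 2.5 min before agonist challenge with 1 μM icilin. Human TRPM8 was expressed in a stable T-REx CHO line, induced with 0.5 μg/mL tetracycline the day before.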

T1 sequence (Q7Z2W7 whole entry): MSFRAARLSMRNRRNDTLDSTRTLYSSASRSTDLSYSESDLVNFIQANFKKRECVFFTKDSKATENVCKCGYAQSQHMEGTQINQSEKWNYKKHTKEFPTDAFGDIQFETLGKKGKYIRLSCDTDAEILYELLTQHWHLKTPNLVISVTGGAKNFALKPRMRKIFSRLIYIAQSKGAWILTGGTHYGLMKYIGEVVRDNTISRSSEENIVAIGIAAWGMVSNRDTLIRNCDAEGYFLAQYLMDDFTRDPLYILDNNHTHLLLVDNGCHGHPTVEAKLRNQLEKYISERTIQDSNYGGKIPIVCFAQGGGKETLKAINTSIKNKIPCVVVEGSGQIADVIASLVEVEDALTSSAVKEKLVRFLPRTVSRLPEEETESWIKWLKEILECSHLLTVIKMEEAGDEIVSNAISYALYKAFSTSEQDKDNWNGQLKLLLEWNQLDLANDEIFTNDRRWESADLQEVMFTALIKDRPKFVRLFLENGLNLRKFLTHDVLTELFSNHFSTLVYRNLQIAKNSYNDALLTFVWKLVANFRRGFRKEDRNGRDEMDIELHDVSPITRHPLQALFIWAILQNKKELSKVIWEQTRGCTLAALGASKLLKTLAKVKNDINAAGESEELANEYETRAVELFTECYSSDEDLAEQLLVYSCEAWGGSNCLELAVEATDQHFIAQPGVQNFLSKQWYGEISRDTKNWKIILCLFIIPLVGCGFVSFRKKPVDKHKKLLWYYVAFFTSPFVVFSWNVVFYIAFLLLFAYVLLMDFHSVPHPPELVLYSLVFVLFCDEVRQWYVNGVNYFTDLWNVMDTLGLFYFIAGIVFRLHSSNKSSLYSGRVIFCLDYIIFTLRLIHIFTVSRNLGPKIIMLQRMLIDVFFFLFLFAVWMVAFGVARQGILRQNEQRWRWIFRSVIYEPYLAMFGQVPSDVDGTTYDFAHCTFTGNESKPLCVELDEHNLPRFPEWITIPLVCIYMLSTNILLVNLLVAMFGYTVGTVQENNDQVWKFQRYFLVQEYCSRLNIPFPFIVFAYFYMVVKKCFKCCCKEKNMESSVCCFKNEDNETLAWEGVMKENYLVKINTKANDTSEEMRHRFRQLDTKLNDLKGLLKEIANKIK

Structure (SMILES) | IC50
O=C(N[C@@H](c1ccc(C(F)(F)F)cc1)c1ncccc1F)c1ccc(=O)[nH]n1 [Example 317, (S)-N-((3-fluoropyridin-2-yl)(4-(trifluoromethyl)phenyl)methyl)-6-oxo-1,6-dihydropyridazine-3-carboxamide] | 38.9 nM
O=C(N[C@@H](c1ccc(C(F)(F)F)cc1)c1ncccc1F)c1c[nH]c(=O)cn1 [Example 319, (S)-N-((3-fluoropyridin-2-yl)(4-(trifluoromethyl)phenyl)methyl)-5-oxo-4,5-dihydropyrazine-2-carboxamide] | 132 nM
O=C(N[C@@H](c1ccc(C(F)(F)F)cc1)c1ncccc1F)c1cc2n(n1)CCCO2 [Example 320, (S)-N-((3-fluoropyridin-2-yl)(4-(trifluoromethyl)phenyl)methyl)-6,7-dihydro-5H-pyrazolo[5,1-b][1,3]oxazine-2-carboxamide] | 132 nM
O=C(N[C@@H](c1ccc(C(F)(F)F)cc1)c1ncccc1F)c1n[nH]c2c1CCC2 [Example 321, (S)-N-((3-fluoropyridin-2-yl)(4-(trifluoromethyl)phenyl)methyl)-1,4,5,6-tetrahydrocyclopenta[c]pyrazole-3-carboxamide] | 164 nM
O=C(N[C@@H](c1ccc(C(F)(F)F)cc1)c1ncccc1F)c1n[nH]c2c1CCCC2 [Example 322, (S)-N-((3-fluoropyridin-2-yl)(4-(trifluoromethyl)phenyl)methyl)-4,5,6,7-tetrahydro-1H-indazole-3-carboxamide] | 202 nM
Cc1cccnc1[C@@H](NC(=O)c1ccc(-c2nc(=O)o[nH]2)cc1)c1ccc(C(F)(F)F)cc1 [Example 323, (S)-N-((3-methylpyridin-2-yl)(4-(trifluoromethyl)phenyl)methyl)-4-(5-oxo-2,5-dihydro-1,2,4-oxadiazol-3-yl)benzamide] | 36.7 nM

Further lines, results first:

IC50 | Structure (SMILES)
27.8 nM | O=C(N[C@@H](c1ccc(C(F)(F)F)cc1)c1ncccc1C(F)(F)F)c1ccc2nnnn2c1 [Example 311, (S)-N-((4-(trifluoromethyl)phenyl)(3-(trifluoromethyl)pyridin-2-yl)methyl)tetrazolo[1,5-a]pyridine-6-carboxamide]
25.2 nM | O=C(N[C@@H](c1ccc(C(F)(F)F)cc1)c1ncccc1C(F)(F)F)c1ccn2nnnc2c1 [Example 312, (S)-N-((4-(trifluoromethyl)phenyl)(3-(trifluoromethyl)pyridin-2-yl)methyl)tetrazolo[1,5-a]pyridine-7-carboxamide]
25.9 nM | Cc1cccnc1[C@@H](NC(=O)c1ccc2[nH]c(=O)oc2c1)c1ccc(C(F)(F)F)cc1 [Example 313, (S)-N-((3-methylpyridin-2-yl)(4-(trifluoromethyl)phenyl)methyl)-2-oxo-2,3-dihydrobenzo[d]oxazole-6-carboxamide]
21.8 nM | Cc1cccnc1[C@@H](NC(=O)c1ccc2nccn2c1)c1ccc(C(F)(F)F)cc1 [Example 314, (S)-N-((3-methylpyridin-2-yl)(4-(trifluoromethyl)phenyl)methyl)imidazo[1,2-a]pyridine-6-carboxamide]
36.3 nM | O=C(N[C@@H](c1ccc(C(F)(F)F)cc1)c1ncccc1F)c1ccc(-c2nc(=O)o[nH]2)cc1 [Example 315, (S)-N-((3-fluoropyridin-2-yl)(4-(trifluoromethyl)phenyl)methyl)-4-(5-oxo-2,5-dihydro-1,2,4-oxadiazol-3-yl)benzamide]
31.4 nM | O=C(N[C@@H](c1ccc(OC(F)(F)F)cc1)c1ncccc1F)c1ccc(-c2nc(=O)o[nH]2)cc1 [Example 316, (S)-N-((3-fluoropyridin-2-yl)(4-(trifluoromethoxy)phenyl)methyl)-4-(5-oxo-2,5-dihydro-1,2,4-oxadiazol-3-yl)benzamide]
29.7 nM | O=C1CCc2cc(C(=O)N[C@@H](c3ccc(C(F)(F)F)cc3)c3ncccc3F)ccc2N1 [Example 318, (S)-N-((3-fluoropyridin-2-yl)(4-(trifluoromethyl)phenyl)methyl)-2-oxo-1,2,3,4-tetrahydroquinoline-6-carboxamide]
